A word on the IC50: it is the concentration that gives 50% inhibition. High values mean weaker potency, low ones greater potency.

This assay can be described thus: Inhibition of 20S proteasome (unknown origin) using Suc-LLVY-AMC as substrate preincubated for 1 hr followed by substrate addition incubated for 1 hr by fluorescence analysis. Also noted: species or system Homo sapiens.

Turning to `CC(C)C[C@@H](CS(=O)(=O)F)NC(=O)[C@H](CC(C)C)NC(=O)[C@H](CC(C)C)NC(=O)OCc1ccccc1`, inhibition was half-maximal at 89.1 nM (IC50). Turning to `CC(C)C[C@@H](CS(=O)(=O)F)NC(=O)[C@H](CC(C)C)NC(=O)[C@H](CC(C)C)NC(=O)[C@H](CC(C)C)NC(=O)OCc1ccccc1`, the IC50 worked out at 17.8 nM. Take `CC(C)C[C@@H](/C=C/S(=O)(=O)F)NC(=O)[C@H](CC(C)C)NC(=O)[C@H](CC(C)C)NC(=O)[C@H](CC(C)C)NC(=O)OCc1ccccc1`: it took 99 nM to reach half-maximal inhibition (IC50).

On to `CC(C)C[C@@H](/C=C/S(=O)(=O)F)NC(=O)[C@H](CC(C)C)NC(=O)[C@H](CC(C)C)NC(=O)OCc1ccccc1`, for which it took 218 nM to reach half-maximal inhibition (IC50).

Source of the values: ChEMBL document CHEMBL3813610, “Proteasome inhibition by new dual warhead containing peptido vinyl sulfonyl fluorides” (Bioorg Med Chem, 2016).
